Reference: ChEMBL document CHEMBL1201862, “PubChem BioAssay data set” (2004)
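Results reflect a 48-hour exposure of cells in 96-well plates to compound at five concentrations. GI50 is the concentration that inhibits growth by half.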 Activity calls are given as the source filed them. Rule as the data show it: active = GI50 up to about 1.1 µM and inactive = higher.

How the values were obtained:
Experiment in all cases: NCI-60 cell line screen, 48 h
MDA-MB-435 = system: MDA-MB-435
NCI-H23 = system: NCI-H23
MDA-N = system: MDA-N
CAKI-1 = system: CAKI-1
HCC 2998 = system: HCC 2998
NCI-H226 = system: NCI-H226
HOP-62 = system: HOP-62
SF-268 = system: SF-268
HOP-92 = system: HOP-92
786-0 = system: 786-0
HL-60 = system: HL-60
SK-MEL-5 = system: SK-MEL-5
PC-3 = system: PC-3
MCF7 = system: MCF7
OVCAR-8 = system: OVCAR-8
RXF 393 = system: RXF 393
IGROV-1 = system: IGROV-1
A549 = system: A549
OVCAR-4 = system: OVCAR-4
COLO 205 = system: COLO 205
CCRF-CEM = system: CCRF-CEM
MOLT-4 = system: MOLT-4
SF-539 = system: SF-539
U-251 = system: U-251
SNB-75 = system: SNB-75
NCI-H460 = system: NCI-H460
M14 = system: M14
UACC-62 = system: UACC-62
HT-29 = system: HT-29
OVCAR-3 = system: OVCAR-3
T47D = system: T47D
BT-549 = system: BT-549
SN12C = system: SN12C
TK-10 = system: TK-10
SK-MEL-2 = system: SK-MEL-2
K562 = system: K562
SK-MEL-28 = system: SK-MEL-28
NCI-H522 = system: NCI-H522
RPMI-8226 = system: RPMI-8226
UACC-257 = system: UACC-257
LOX IMVI = system: LOX IMVI
UO-31 = system: UO-31
MDA-MB-231 = system: MDA-MB-231
OVCAR-5 = system: OVCAR-5
SR = system: SR
Malme-3M = system: Malme-3M
KM12 = system: KM12
SW-620 = system: SW-620
SF-295 = system: SF-295
HCT-15 = system: HCT-15
NCI/ADR-RES = system: NCI/ADR-RES
SK-OV-3 = system: SK-OV-3
ACHN = system: ACHN
HCT-116 = system: HCT-116
DU-145 = system: DU-145
EKVX = system: EKVX
SNB-19 = system: SNB-19
Hs-578T = system: Hs-578T

Measured: GI50

O=c1oc2ccc(Cl)cc2cc1-c1cn2cc(Cl)ccc2n1
inactive: NCI-H23 > 100 µM | CAKI-1 > 22.4 µM | HCC 2998 > 73.6 µM | NCI-H226 > 100 µM | HOP-62 > 69.3 µM | SF-268 > 80.9 µM | HOP-92 > 100 µM | 786-0 > 42.4 µM | HL-60 3.4 µM | SK-MEL-5 > 100 µM | PC-3 > 100 µM | MCF7 1.64 µM | OVCAR-8 > 57 µM | RXF 393 > 100 µM | IGROV-1 > 25.8 µM | A549 14.1 µM | OVCAR-4 > 100 µM | COLO 205 > 100 µM | CCRF-CEM > 28.8 µM | MOLT-4 6.46 µM | SF-539 > 100 µM | U-251 > 49.3 µM | SNB-75 > 100 µM | NCI-H460 14.4 µM | M14 4.46 µM | HT-29 > 24.3 µM | OVCAR-3 5.3 µM | T47D > 100 µM | BT-549 15.1 µM | SN12C > 89.1 µM | TK-10 > 100 µM | SK-MEL-2 > 100 µM | K562 5.05 µM | SK-MEL-28 > 100 µM | RPMI-8226 > 100 µM | UACC-257 > 100 µM | LOX IMVI > 28.2 µM | UO-31 > 44 µM | MDA-MB-231 > 70.3 µM | OVCAR-5 > 100 µM | KM12 2.54 µM | SW-620 > 32.3 µM | SF-295 10.1 µM | NCI/ADR-RES 11.4 µM | SK-OV-3 > 100 µM | ACHN > 100 µM | HCT-116 6.3 µM | DU-145 > 100 µM | EKVX > 37.3 µM
active: MDA-MB-435 0.24 µM | MDA-N 0.368 µM | UACC-62 0.574 µM | NCI-H522 0.74 µM | SR 0.473 µM | Malme-3M 0.698 µM
2.36 µM: HCT-15

COc1c(C2(c3ccc(F)cc3)SCCCS2)c(=O)c1=O
> 100 µM: HCT-15
inactive: MDA-MB-435 > 100 µM | NCI-H23 > 100 µM | MDA-N > 100 µM | CAKI-1 > 100 µM | HCC 2998 > 100 µM | NCI-H226 > 100 µM | HOP-62 > 100 µM | SF-268 > 100 µM | HOP-92 > 100 µM | SNB-19 > 100 µM | 786-0 > 100 µM | HL-60 31.6 µM | SK-MEL-5 > 100 µM | PC-3 > 100 µM | MCF7 > 100 µM | OVCAR-8 > 100 µM | RXF 393 > 100 µM | A549 > 100 µM | OVCAR-4 > 100 µM | COLO 205 > 100 µM | CCRF-CEM > 100 µM | MOLT-4 > 100 µM | SF-539 > 100 µM | U-251 > 100 µM | SNB-75 > 100 µM | NCI-H460 > 100 µM | Hs-578T > 100 µM | M14 > 100 µM | UACC-62 > 100 µM | HT-29 > 100 µM | OVCAR-3 > 100 µM | BT-549 > 100 µM | SN12C > 100 µM | TK-10 > 100 µM | SK-MEL-2 > 100 µM | K562 > 100 µM | SK-MEL-28 > 100 µM | RPMI-8226 > 100 µM | UACC-257 > 100 µM | LOX IMVI > 100 µM | UO-31 > 100 µM | MDA-MB-231 > 100 µM | OVCAR-5 > 100 µM | Malme-3M > 100 µM | KM12 > 100 µM | SW-620 > 100 µM | SF-295 > 100 µM | NCI/ADR-RES > 100 µM | SK-OV-3 > 100 µM | ACHN > 100 µM | HCT-116 > 100 µM | DU-145 > 100 µM | EKVX > 100 µM
